Holding throughout (assay): relative viability (nuclei count vs DMSO), 5 days (fraction); higher = more cells survive
Compound in experiment [1]: C[C@@H](C(=O)N[C@@H](C1CCCCC1)C(=O)N2CCC[C@H]2C(=O)N[C@@H]3[C@@H](CC4=CC=CC=C34)OCC#CC#CCO[C@@H]5CC6=CC=CC=C6[C@@H]5NC(=O)[C@@H]7CCCN7C(=O)[C@H](C8CCCCC8)NC(=O)[C@H](C)NC)NC [AZD5582] + O=C(c1cc(Cc2n[nH]c(=O)c3ccccc23)ccc1F)N1CCN(C(=O)C2CC2)CC1 [Olaparib] (partner 8 µM)
The gist of the method:
(§1)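 Nuclei were stained with Hoechst during a one-step fixation (final 0.05% Triton X-100, 1% formaldehyde, 1 ug/ml Hoechst) carried out 5 days after dosing, then counted on 4× images. The cells, lung cancer lines in 1536-well plates, had been dosed by pin tool the day after seeding with one drug alone or a fixed anchor-drug dose plus five library-drug doses (not always all listed) in √10 steps. Relative viability is the nuclei count in treated wells divided by that in vehicle wells, and each value is the median of duplicate plates.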

Compound in experiment [2]: C[C@@H](C(=O)N[C@@H](C1CCCCC1)C(=O)N2CCC[C@H]2C(=O)N[C@@H]3[C@@H](CC4=CC=CC=C34)OCC#CC#CCO[C@@H]5CC6=CC=CC=C6[C@@H]5NC(=O)[C@@H]7CCCN7C(=O)[C@H](C8CCCCC8)NC(=O)[C@H](C)NC)NC [AZD5582] + CC(C)C[C@H](NC(=O)[C@H](Cc1ccccc1)NC(=O)c1cnccn1)B(O)O [Bortezomib] (partner 0.002 µM)
Summed up:
as §1

Compound in experiment [3]: C[C@@H](C(=O)N[C@@H](C1CCCCC1)C(=O)N2CCC[C@H]2C(=O)N[C@@H]3[C@@H](CC4=CC=CC=C34)OCC#CC#CCO[C@@H]5CC6=CC=CC=C6[C@@H]5NC(=O)[C@@H]7CCCN7C(=O)[C@H](C8CCCCC8)NC(=O)[C@H](C)NC)NC [AZD5582] + CS(=O)(=O)N1CCN(Cc2cc3nc(-c4cccc5[nH]ncc45)nc(N4CCOCC4)c3s2)CC1 [Pictilisib] (partner 1 µM)
The gist of the method:
as §1

Compound in experiment [4]: Cn1nnc2c(C(N)=O)ncn2c1=O [Temozolomide] + Cc1nc(Nc2ncc(C(=O)Nc3c(C)cccc3Cl)s2)cc(N2CCN(CCO)CC2)n1 [Dasatinib] (partner 0.075 µM)
Summed up: as §1

Drawing on the supplement of paper PMC10307832, this text covers relative viability for three cell lines.

As to NCI-H322M, the relative viability in experiment [1] (first compound 0.001581 µM) was found to be 0.745; in experiment [1] (first compound 0.005 µM) it was 0.865; in experiment [1] (first compound 0.01581 µM), 0.692; in experiment [1] (first compound 0.05 µM) it was 0.882; in experiment [2] (first compound 0.001581 µM), 1.18; in experiment [2] (first compound 0.005 µM), 1.37. In addition, the relative viability came to 1.18 in experiment [2] (first compound 0.01581 µM); 1.41 in experiment [2] (first compound 0.05 µM); 0.554 in experiment [3] (first compound 0.001581 µM); 0.632 in experiment [3] (first compound 0.005 µM); 0.715 in experiment [3] (first compound 0.01581 µM); 0.625 in experiment [3] (first compound 0.05 µM). Besides, the relative viability in experiment [4] (first compound 0.6325 µM) came to 0.275; in experiment [4] (first compound 2 µM), 0.274; in experiment [4] (first compound 6.325 µM), 0.256; in experiment [4] (first compound 20 µM) it was 0.218.
On to NCI-H661, for which the relative viability came to 0.7 in experiment [1] (first compound 0.001581 µM); 0.758 in experiment [1] (first compound 0.005 µM); 0.787 in experiment [1] (first compound 0.01581 µM); 0.737 in experiment [1] (first compound 0.05 µM); 0.752 in experiment [2] (first compound 0.001581 µM); 0.927 in experiment [2] (first compound 0.005 µM). In addition, the relative viability in experiment [2] (first compound 0.01581 µM) is 0.702; in experiment [2] (first compound 0.05 µM), 0.921; in experiment [3] (first compound 0.001581 µM), 0.36; in experiment [3] (first compound 0.005 µM), 0.416; in experiment [3] (first compound 0.01581 µM) it was 0.403; in experiment [3] (first compound 0.05 µM), 0.399. Also, the relative viability in experiment [4] (first compound 0.2 µM) turned out to be 0.781; in experiment [4] (first compound 0.6325 µM), 0.953; in experiment [4] (first compound 2 µM), 0.962; in experiment [4] (first compound 6.325 µM), 0.762; in experiment [4] (first compound 20 µM), 0.706.
As to NCI-H650, the relative viability worked out at 0.321 in experiment [1] (first compound 0.001581 µM); 0.32 in experiment [1] (first compound 0.005 µM); 0.366 in experiment [1] (first compound 0.01581 µM); 0.307 in experiment [1] (first compound 0.05 µM); 0.757 in experiment [2] (first compound 0.001581 µM); 0.654 in experiment [2] (first compound 0.005 µM). Moreover, the relative viability in experiment [2] (first compound 0.01581 µM) was determined as 0.57; in experiment [2] (first compound 0.05 µM), 0.582; in experiment [3] (first compound 0.001581 µM) it was 0.645; in experiment [3] (first compound 0.005 µM) it was 0.702; in experiment [3] (first compound 0.01581 µM), 0.759; in experiment [3] (first compound 0.05 µM), 0.589. In addition, the relative viability turned out to be 0.504 in experiment [4] (first compound 0.2 µM); 0.46 in experiment [4] (first compound 0.6325 µM); 0.532 in experiment [4] (first compound 2 µM); 0.395 in experiment [4] (first compound 6.325 µM); 0.43 in experiment [4] (first compound 20 µM).
